From patent publication US20230167155A1, “COMPOSITIONS AND METHODS” (KING'S COLLEGE LONDON, priority 2020, published 2023)

Assays:
[1] = tested on: patients with stable atherosclerotic cardiovascular disease; conditions: addition to aspirin; cited from earlier work
ApoE−/− mice [2] = conditions: 22 week old animals, daily treatment for 6 weeks, clinically relevant doses; cited from earlier work
PAR1 = target: T1, PAR1 (Homo sapiens, UniProt P25116); design: host or cells: patients; conditions: patients with stable atherosclerosis; cited from earlier work
T1 sequence (P25116 22-425): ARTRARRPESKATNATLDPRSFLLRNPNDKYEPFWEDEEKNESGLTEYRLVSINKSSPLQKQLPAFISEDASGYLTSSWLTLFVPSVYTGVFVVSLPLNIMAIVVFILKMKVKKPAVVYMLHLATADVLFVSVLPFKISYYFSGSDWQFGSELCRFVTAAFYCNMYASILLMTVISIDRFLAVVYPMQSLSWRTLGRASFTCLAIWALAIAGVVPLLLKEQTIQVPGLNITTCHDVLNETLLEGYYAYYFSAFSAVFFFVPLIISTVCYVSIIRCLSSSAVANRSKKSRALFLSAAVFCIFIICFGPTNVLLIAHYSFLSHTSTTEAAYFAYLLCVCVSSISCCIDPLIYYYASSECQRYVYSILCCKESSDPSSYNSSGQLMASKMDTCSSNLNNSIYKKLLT

ApoE−/− mice [3] = test: Regression of established atheroma, weekly IV injections (Oil Red O en face, aortic root); type: in vivo, mouse
Method: For all atherosclerosis work, male ApoE−/− mice, from the age of 6-weeks, were fed with a high fat diet (HFD) consisting 35 kcal % fat, 1.25% cholesterol, and 0.5% cholic acid (Special Diet Services, Essex UK). Aortas were transplanted 2 weeks after starting the HFD, using a sleeve anastomosis technique described previously^11. Briefly, a 5 mm of the segment of the infrarenal donor aorta, flushed with 300 μl of saline containing 50 U of heparin, was transplanted into ApoE−/− recipient abdomen aortas (N=6 per group). Blood flow was confirmed by direct inspection after removal of the clamps. Mice were fed a HFD for 6-12 weeks post-transplantation before the experiment was terminated (Suppl FIG. 1A). To assess prevention of atheroma, mice (n=6 per group) received a single injection of PTL060 or controls by tail vein, and the experiments terminated 1-3 weeks later (Suppl FIG. 1B). For regression experiments, baseline groups (n=6) were fed a HFD to the age of 22 weeks before the mice were sacrificed. Experimental or control groups (n=3-6 per group) received weekly injections by tail vein for 3-6 weeks, beginning at age of 22 weeks before the experiments were terminated when mice were 25-28 weeks old (Suppl FIG. 1C).
Atherosclerotic lesions were evaluated as previously described^11. Simply, the entire length of the aorta was perfused with PBS, dissected using a dissecting microscope, longitudinally opened and stained with Oil Red O (ORO) solution (Sigma, UK) for 30 minutes, before being photographed with a digital camera (DSC-W320, Sony, Japan). The total aortic area and lesional area were measured by using Image J. Aortas from every animal were assessed. To assess lesions in the aortic sinus, hearts were embedded in paraffin, sectioned through the aortic root and incubated with elastin/van Gieson stain using the Accustain™ Elastin Stain kit (Sigma). Sections were examined on an Olympus U-ULH optical microscope (Olympus Optical Co. Ltd, Tokyo, Japan). Atheromatous lesional and total aortic root area was determined using Image-Pro Plus TM software version 4.0 (Media Cybernetics, Silver Spring, USA). At least three random sections were examined from each mouse in all groups.

TNFα, IFNγ, MIF and CCL2 = test: Plasma cytokines and chemokines by ELISA; type: in vivo, mouse; conditions: HFD, weekly IV for 6 weeks, equimolar to PTL060 10 μg/g
Method: Anticoagulated whole blood (EDTA 30 mM pH8) was separated into plasma and cells by centrifugation (14,000 g for 10 mins). Plasma TNFα, IFN-γ, MIF and CCL2 were detected using separate specific ELISA kits (R&D Systems, Abingdon, UK) according to the manufacturers' instructions. Total cholesterol, high-density lipoprotein and low-density lipoprotein were determined using kits from Cell Biolabs, and Tryglycerides with a kit from Abcam, (both Cambridge, UK) according to the manufacturer's protocol. Thrombin clotting times were measured in 3.2% trisodium citrated plasma according to the protocol of Ignjatovic^16. Briefly, 100 μl mouse plasma was incubated with 2.5 U of human thrombin in a total volume of 300 μl (Enzyme Research Laboratories (ERL), Swansea, UK) at 37° C., and the time for a clot to form was measured (n=6 per group). For some experiments plasma was further centrifuged (20,000 g for 10 mins) to minimise the presence of extracellular vesicles.
FIG. 18: Illustrating the systemic proinflammatory state that accompanies development of atherosclerosis in ApoE^−/− mice fed a high fat diet, and the impact of PTL032 on that inflammation, compared to PTL060 and controls. Cytokines (interferon-gamma TNFalpha) and chemokines (macrophage migration inhibitory factor, MIF and CCL2) measured by ELISA of plasma samples harvested from mice at the times indicated. HFD=high fat diet. […]

MIF = test: Vessel wall chemokine (MIF, CCL2) expression after IV injection, immunofluorescence; type: in vivo, mouse; conditions: single IV injection, PTL060 or equimolar dose
Method: Immunohistology of frozen cross sections were prepared and examined as previously described^11. Briefly, isolated tissues were snap-frozen and embedded in OCT compound (VWR International, Dorset, UK), sectioned at 5 μm thickness and fixed in methanol at −20° C. Frozen sections were immersed in 1% bovine serum albumin-phosphate-buffered saline (BSA-PBS) for 30 minutes and then incubated overnight at 4° C. with one or more of the following antibodies: rabbit polyclonal antibody to CD68, iNOs, CD206, TNFα, MIF, CCR7 ABCA1 (all from Abcam, Cambridge, UK), or hirudin (Biobyt, Cambridge, UK) or CCL2 (Lifespan BioScience, Inc., WA 98121, USA); goat polyclonal antibody to CD31 (Santa Cruz Biotechnology, Texas 75220, USA); rat anti-mouse CD68, CD11b (Serotec, Oxford, United Kingdom), CD31, IFNγ (BD Bioscience Pharmingen, Oxford, United Kingdom), Ly-6G (BioLegend, London, UK), IL-10 (Abcam) or biotinylated anti-HLL (RICS-2)^14; mouse anti-CCR2 (Abcam). […] Quantification of staining was achieved by expressing the area of positive staining as a ratio of the total lesion area, calculated using Image-Pro Plus TM, version 4.0. All quantification was performed by members of the team blinded to the identity of the sections. […] To detect macrophage-derived foam cells, frozen sections of aortic sinus were analysed by a combination of ORO staining and CD68 immunostaining. […]

O=C(NC[C@H]1CN(c2ccc(N3CCOCC3=O)cc2)C(=O)O1)c1ccc(Cl)s1 [rivaroxaban]
deaths, strokes and myocardial infarction [1]: fewer deaths, strokes and myocardial infarction | atheroma burden reduced by (ApoE−/− mice [2]): 25%

CCOC(=O)N[C@@H]1CC[C@@H]2[C@@H](C1)C[C@H]1C(=O)O[C@H](C)[C@H]1[C@H]2/C=C/c1ccc(-c2cccc(F)c2)cn1 [vorapaxar]
risk of myocardial infarction (PAR1): reduce the risk of myocardial infarction

[Myr2]-KSSKSPSKKDDKKPGDC(S—S—CH2-CH2-Phe-Cha-Cha-Arg-Lys-Pro-Asn-Asp-Lys-NH2)NH2 [PTL032]
animals with atherosclerotic plaques essentially completely eliminated (ApoE−/− mice [3]; HFD 16 weeks, then PTL032 7 μg/g weekly IV for 6 weeks): 4 out of the 6 | regression of atherosclerosis in direct comparison with PTL060 (ApoE−/− mice [3]; equimolar doses (PTL032 7 μg/g, PTL060 10 μg/g), weekly IV 6 weeks): considerably better regression of atherosclerosis than PTL060 | plasma chemokines and cytokines (IFNγ, TNFα, MIF, CCL2) (TNFα, IFNγ, MIF and CCL2): suppression of important chemokines and cytokines, almost back to levels seen in very young mice

bivalirudin
atheroma burden after weekly injections (ApoE−/− mice [3]; HFD from age 6 to 22 weeks, then weekly IV for 6 weeks, PTL060 10 μg/g or equimolar doses of controls): developed increasing atheroma burden equivalent to that seen in saline control mice | suppression of vessel wall chemokine (MIF) expression (MIF): not
